# Laboratory results as given in PMC10769797 (The Oncologist, 2023).
# System: patients with advanced solid tumors
# Test: Phase I dose-escalation safety: adverse events
# Format: in vivo, human
structure (smiles),measurement,setting,value
Cc1cc(NC2CCN(C(=O)OC3CCN(C(=O)/C=C/CN(C)C)C3)CC2)n2ncc(C(C)C)c2n1 (centres unmarked) [LY3405105],Patients with ≥1 SAE related to study treatment,"QD (N = 43), Any grade",7 (16) n (%)
same,Patients with ≥1 TRAE,"QD (N = 43), Any grade",29 (67) n (%)
same,SAE related to study treatment: Abdominal pain,"QD (N = 43), Any grade",1 (2) n (%)
same,SAE related to study treatment: Acute kidney injury,"QD (N = 43), Any grade",1 (2) n (%)
same,SAE related to study treatment: Alanine aminotransferase increase,"QD (N = 43), Any grade",1 (2) n (%)
same,SAE related to study treatment: Diarrhea,"QD (N = 43), Any grade",2 (5) n (%)
same,SAE related to study treatment: Dyspnea,"QD (N = 43), Any grade",1 (2) n (%)
same,SAE related to study treatment: Hypotension,"QD (N = 43), Any grade",1 (2) n (%)
same,SAE related to study treatment: Mucosal inflammation,"QD (N = 43), Any grade",1 (2) n (%)
same,SAE related to study treatment: Nausea,"QD (N = 43), Any grade",1 (2) n (%)
same,SAE related to study treatment: Ophthalmic herpes zoster,"QD (N = 43), Any grade",1 (2) n (%)
same,SAE related to study treatment: Platelet count decrease,"QD (N = 43), Any grade",1 (2) n (%)
same,TRAE: Abdominal pain,"QD (N = 43), Any grade",6 (14) n (%)
same,TRAE: Anemia,"QD (N = 43), Any grade",5 (12) n (%)
same,TRAE: Asthenia,"QD (N = 43), Any grade",2 (5) n (%)
same,TRAE: Diarrhea,"QD (N = 43), Any grade",18 (42) n (%)
same,TRAE: Fatigue,"QD (N = 43), Any grade",8 (19) n (%)
same,TRAE: Nausea,"QD (N = 43), Any grade",9 (21) n (%)
same,TRAE: Platelet count decrease,"QD (N = 43), Any grade",6 (14) n (%)
same,TRAE: Vomiting,"QD (N = 43), Any grade",8 (19) n (%)
same,Patients with ≥1 SAE related to study treatment,"QD (N = 43), ≥Grade 3",6 (14) n (%)
same,Patients with ≥1 TRAE,"QD (N = 43), ≥Grade 3",10 (23) n (%)
same,SAE related to study treatment: Abdominal pain,"QD (N = 43), ≥Grade 3",0 n (%)
same,SAE related to study treatment: Acute kidney injury,"QD (N = 43), ≥Grade 3",1 (2) n (%)
same,SAE related to study treatment: Alanine aminotransferase increase,"QD (N = 43), ≥Grade 3",1 (2) n (%)
same,SAE related to study treatment: Diarrhea,"QD (N = 43), ≥Grade 3",2 (5) n (%)
same,SAE related to study treatment: Dyspnea,"QD (N = 43), ≥Grade 3",1 (2) n (%)
same,SAE related to study treatment: Hypotension,"QD (N = 43), ≥Grade 3",0 n (%)
same,SAE related to study treatment: Mucosal inflammation,"QD (N = 43), ≥Grade 3",1 (2) n (%)
same,SAE related to study treatment: Nausea,"QD (N = 43), ≥Grade 3",1 (2) n (%)
same,SAE related to study treatment: Ophthalmic herpes zoster,"QD (N = 43), ≥Grade 3",1 (2) n (%)
same,SAE related to study treatment: Platelet count decrease,"QD (N = 43), ≥Grade 3",1 (2) n (%)
same,TRAE: Abdominal pain,"QD (N = 43), ≥Grade 3",0 n (%)
same,TRAE: Anemia,"QD (N = 43), ≥Grade 3",2 (5) n (%)
same,TRAE: Asthenia,"QD (N = 43), ≥Grade 3",0 n (%)
same,TRAE: Diarrhea,"QD (N = 43), ≥Grade 3",2 (5) n (%)
same,TRAE: Fatigue,"QD (N = 43), ≥Grade 3",1 (2) n (%)
same,TRAE: Nausea,"QD (N = 43), ≥Grade 3",1 (2) n (%)
same,TRAE: Platelet count decrease,"QD (N = 43), ≥Grade 3",3 (7) n (%)
same,TRAE: Vomiting,"QD (N = 43), ≥Grade 3",0 n (%)
same,Maximum tolerated dose (MTD),"QD, oral monotherapy, patients",20 mg
same,Recommended phase II dose (RP2D),"QD, oral monotherapy, patients",20 mg
same,Patients with ≥1 SAE related to study treatment,"TIW (N = 11), Any grade",0 n (%)
same,Patients with ≥1 TRAE,"TIW (N = 11), Any grade",6 (55) n (%)
same,SAE related to study treatment: Abdominal pain,"TIW (N = 11), Any grade",0 n (%)
same,SAE related to study treatment: Acute kidney injury,"TIW (N = 11), Any grade",0 n (%)
same,SAE related to study treatment: Alanine aminotransferase increase,"TIW (N = 11), Any grade",0 n (%)
same,SAE related to study treatment: Diarrhea,"TIW (N = 11), Any grade",0 n (%)
same,SAE related to study treatment: Dyspnea,"TIW (N = 11), Any grade",0 n (%)
same,SAE related to study treatment: Hypotension,"TIW (N = 11), Any grade",0 n (%)
same,SAE related to study treatment: Mucosal inflammation,"TIW (N = 11), Any grade",0 n (%)
same,SAE related to study treatment: Nausea,"TIW (N = 11), Any grade",0 n (%)
same,SAE related to study treatment: Ophthalmic herpes zoster,"TIW (N = 11), Any grade",0 n (%)
same,SAE related to study treatment: Platelet count decrease,"TIW (N = 11), Any grade",0 n (%)
same,TRAE: Abdominal pain,"TIW (N = 11), Any grade",0 n (%)
same,TRAE: Anemia,"TIW (N = 11), Any grade",1 (9) n (%)
same,TRAE: Asthenia,"TIW (N = 11), Any grade",4 (36) n (%)
same,TRAE: Diarrhea,"TIW (N = 11), Any grade",0 n (%)
same,TRAE: Fatigue,"TIW (N = 11), Any grade",0 n (%)
same,TRAE: Nausea,"TIW (N = 11), Any grade",1 (9) n (%)
same,TRAE: Platelet count decrease,"TIW (N = 11), Any grade",0 n (%)
same,TRAE: Vomiting,"TIW (N = 11), Any grade",0 n (%)
same,Patients with ≥1 SAE related to study treatment,"TIW (N = 11), ≥Grade 3",0 n (%)
same,Patients with ≥1 TRAE,"TIW (N = 11), ≥Grade 3",0 n (%)
same,SAE related to study treatment: Abdominal pain,"TIW (N = 11), ≥Grade 3",0 n (%)
same,SAE related to study treatment: Acute kidney injury,"TIW (N = 11), ≥Grade 3",0 n (%)
same,SAE related to study treatment: Alanine aminotransferase increase,"TIW (N = 11), ≥Grade 3",0 n (%)
same,SAE related to study treatment: Diarrhea,"TIW (N = 11), ≥Grade 3",0 n (%)
